Data from US20230220047A1, “PEPTIDES FOR TREATMENT OF SEPSIS AND CANCER” (NORWEGIAN UNIVERSITY OF SCIENCE AND TECHNOLOGY (NTNU), priority 2020, published 2023).

tested on: TLR4; assay: qPCR of LPS-mediated cytokine mRNA expression in THP-1 macrophages; type: cell-based, human; conditions: control/decoy peptide (data not shown)
Protocol: SW480 (ATCC CCL-228) and Jurkat (ATCC Clone E6-1; TIB-152) cells were cultured in RPMI 1640 (Sigma-Aldrich, Schnelldorf, Germany) supplemented with 10% heat-inactivated FCS, penicillin/streptomycin (Life Technologies) and 20 mM L-Glutamine. THP-1 cells (ATCC TIB-202) were cultured in RPMI-1640 (high-glucose, ATCC) supplemented with 10% heat inactivated foetal calf serum (FCS), 100 nM penicillin/streptomycin and 5 μM β-mercaptoethanol (Sigma). THP-1 cells were differentiated with 60 ng/ml phorbol 12-myristate 13-acetate (PMA, Sigma) for 72 h, followed by 24 or 48 h in medium without PMA.
Total RNA was isolated from the cells using Qiazol reagent #79306 from QIAGEN, and chloroform extraction followed by purification on RNeasy Mini columns with DNAse digestion (Qiagen). cDNA was prepared using the Maxima First Strand cDNA Synthesis Kit for quantitative real-time polymerase chain reaction (RT-qPCR) (Thermo Fisher Scientific) according to the manufacturer's protocol. qPCR was performed using the PerfeCTa qPCR FastMix (Quanta Biosciences) in replicates and cycled in a StepOnePlus™ Real-Time PCR cycler. The following TaqMan® Gene Expression Assays (Applied Biosystems®) were used: IFNβ (Hs01077958_s1), TNF (Hs00174128_m1), TBP (Hs00427620_m1), CXCL10 (Hs01124251_g1), IL-6 (Hs00174131_m1) and IL-1β (Hs01555410_m1), for human cells; Ifnβ (Mm00439552_s1), Tnf (Mm00443258_m1), Tbp (Mm01277042_m1) and II-1β (Mm00434228_m1), for mouse cells. No RT controls were negative. The level of TBP mRNA was used for normalisation and results presented as relative expression compared to the control untreated sample. Relative expression was calculated using Pfaffl's mathematical model (Pfaffl, Nucleic Acids Research 29(9): e45, 2001). Results are presented as the mean and SD expression fold change for biological replicates relative to non-stimulated cells. Statistical significance was evaluated in GraphPad Prizm 5.03. Data distribution was assumed to be normal but this was not formally tested. The difference between the two groups was determined by two-tailed t test.

Row | Substance | LPS- or E. coli particle-induced expression of IFNβ, CXCL10 and TNF
1 | IATYASTALTGRRRRRRRRRRR (Ac-IATYASTALTGRRRRRRRRRRR-NH2) [Peptide P7C3-Arg11, control/decoy peptide] | no effect

tested on: TLR4; assay: ELISA/Bioplex of LPS-mediated cytokine secretion by THP-1 cells; type: cell-based, human; conditions: 15 μM, 30 min pre-treatment, LPS 100 ng/ml 5 h; relative to P7-Pen
Protocol: (A) Results of LDH assay and ELISAs analysing cytokine secretion after 5 h of stimulation with LPS (graphs show mean values for at least 3 biological replicates). […] In the tables average values are presented based on 3-5 biological replicates for each experiment. […]
TNF in supernatants was detected using a human TNF-alpha DuoSet ELISA (DY210) (R&D Systems); CXCL10 using a DuoSet ELISA (DY266) (R&D Systems); IL-1β using a BD OptEiA human IL-1β ELISA SetII (#557953, BD Biosciences): IFNβ using a VeriKine-HS™ Human Interferon-Beta Serum ELISA Kit (#41415) from PBL Assay Science. Some supernatants were also analysed by multiplex cytokine assay (Bio-Plex; Bio-Rad Laboratories Inc.) for IL-1β, IL-6, IL-8, CXCL10/IP-10. Results are presented as mean and SD for biological replicates for a representative donor (primary human macrophages), or at least three independent experiments for the model cell line THP-1. Statistical significance was evaluated in GraphPad Prizm 5.03. Data distribution was assumed to be normal but this was not formally tested. The difference between the two groups was determined by two-tailed t test.

Row | Substance | inhibitory activity towards LPS-induced CXCL10, TNF and IL-1β secretion (ELISA)
2 | ATVYASVTLTGRQIKIWFQNRRMKWKK (P7-A1-Pen) [Peptide P7-A1-Pen] | totally abrogated activity
3 | Ac-ITVYASVTLDGRQIKIWFQNRRMKWKK-NH2 [Peptide P7-D10-Pen] | high levels of activity
4 | Ac-ITVYASVTLGGRQIKIWFQNRRMKWKK-NH2 [Peptide P7-G10-Pen] | high levels of activity
5 | ITLYASVTLTGRQIKIWFQNRRMKWKK (Ac-ITLYASVTLTGRQIKIWFQNRRMKWKK-NH2) [Peptide P7-L3-Pen] | only partially decreased
6 | ITVYASVTLPAGRQIKIWFQNRRMKWKK (P10-A11-Pen) [P10-Ala11-Pen] | totally abrogated
7 | ITVYASVTLPEGRQIKIWFQNRRMKWKK (Ac-ITVYASVTLPEGRQIKIWFQNRRMKWKK-NH2) [Peptide P10-Pen] | totally abrogated
8 | ITVYASVTLTAGRQIKIWFQNRRMKWKK (P11-A11-Pen) [P11-Ala11-Pen] | totally abrogated
9 | ITVYASVTLTEGRQIKIWFQNRRMKWKK (P11-Pen) [Peptide P11-Pen] | totally abrogated
10 | NSITVYASVTLTGRQIKIWFQNRRMKWKK (P3sh2-Pen) [Peptide P3sh2-Pen] | did not cause loss of inhibitory activity
11 | TNSITVYASVTLTGRQIKIWFQNRRMKWKK (P3sh1-Pen) [Peptide P3sh1-Pen] | did not cause loss of inhibitory activity

tested on: TLR4; assay: Western blot of LPS signalling in THP-1 cells and primary human monocytes; type: cell-based; conditions: data not shown
Protocol: Protein pellets were dissolved by heating protein pellets for 10 min at 95° C. in buffer containing 4 M urea, 1 SDS (Sigma) and NuPAGE® LDS Sample Buffer (4×) (Thermo Fisher Scientific). Otherwise, lysates were made using 1× RIPA lysis buffer (150 mM NaCl, 50 mM TrisHCl (pH 7.5), 1% Triton X100, 5 mM EDTA, protease inhibitors, phosphatase inhibitors). For Western blot analysis we used pre-cast protein gels NuPAGE™ Novex™ and iBlot Transfer Stacks iBlot Gel Transfer Device (Thermo Fisher Scientific). Proteins were transferred to the membrane by dry-blotting using iBlot® 2 NC Regular/Mini Stacks (Life Technologies) in the iBlot 2 Dry Blotting System (Life Technologies). After secondary antibody incubation, membranes were washed and incubated with HRP substrate solution (SuperSignal™ West Femto Maximum Sensitivity Substrate (Thermo Fisher Scientific)). Images were taken using Odyssey® Fc (LI-CORE). Quantification graphs were generated by the analysis of signal intensities for protein bands (protein of interest and endogenous loading control—β-tubulin from the same membrane) using Odyssey software (LI-CORE). Data were normalised to the expression levels of β-tubulin and presented as a relative fold change to the control sample.
Further, we tested the effect of P7-Pen on phosphorylation of p38 MAPK, IκBα degradation and modification of IRAK1 in human macrophages (THP-1 cells) and primary human monocytes. P7-Pen inhibited LPS-mediated phosphorylation of p38 MAPK (FIG. 24A) and inhibited IRAK1 ubiquitination/phosphorylation (visualised as band shift to higher molecular weight) in primary monocytes (FIG. 24B).

Row | Substance | pattern of inhibition of p38 MAPK phosphorylation and IRAK1 modification as seen with P7-Pen
12 | IATYASTALTGRQIKIWFQNRRMKWKK (Ac-IATYASTALTGRQIKIWFQNRRMKWKK-NH2) [Peptide P7C3-Pen, control peptide] | not

tested on: ANBL-6 multiple myeloma cells; assay: CellTiter-Glo cell viability assay, ANBL-6; type: cell-based; conditions: 15 μM
Protocol: Minor effects on the proliferation of the IH-1 and RPMI 8226 cell lines are seen. Cells were seeded at the level shown (left-hand bar of each set) then incubated in medium containing water, 10 μM penetratin or 10 μM P7-A4-Pen for 48 hr (except for INA-6 cells, which were incubated with 12.5 μM penetratin or 12.5 μM P7-A4-Pen). The number of viable cells was detected based on quantitation of ATP by luminescent signal in correlation to a standard curve prepared for each cell line. Results are based on 3-5 biological replicates for each condition, error bars show standard deviation of mean.
Cells were seeded and then incubated in growth medium alone or supplemented with water, DMSO, 15 μM penetratin or 15 μM investigational peptide. The growth medium only and H2O—, DMSO- and penetratin-supplemented cultures constituted controls.
The solid horizontal lines show the amount of cells originally seeded. In (A) ANBL-6 cells were seeded at a level of 10,000 cells/well, then incubated in medium supplemented with water, the control peptide C3A-Pen, P7-Pen, P7-A4-Pen, P7-N4-Pen or P7-K2-Pen for 48 hours. The peptides were included at concentrations of 5, 10, 12.5, 15, 20 or 30 μM. Cells were counted at 48 hours. In (B), ANBL-6 cells were seeded at a level of 5000 cells/well, then incubated in medium supplemented with water, P6-Pen, P-P6-Pen, P7-D4-Pen or P7-A4-Pen for 48 hours. Peptides were included at concentrations of 5, 10 or 20 μM. Cells were counted at 48 hours. […] Results are based on 3 biological replicates, error bars show standard deviation of mean.
Multiple myeloma cells JJN-3 (DSMZ (Germany) no. ACC 541), ANBL-6 (Cellosaurus accession number CVCL_5425, obtained from Dr Diane Jelinek, Mayo Clinic, Rochester, Minn.), INA-6 (Cellosaurus accession number CVCL_5209, obtained from Dr M. Gramatzki, University of Erlangen-Nurnberg, Erlangen, Germany), RPMI-8226 (ATCC CCL-155), and IH-1 (Cellosaurus accession number CVCL_WZ44, established from the pleural effusion of a myeloma patient by Myeloma research group, IKOM, NTNU, Trondheim, Norway) were grown in RPMI-1640 (Sigma-Aldrich Norway, Oslo, Norway) supplemented with 100 nM penicillin/streptomycin and 10% FCS, and for ANBL-6, IH-1 and INA-6 cells 2 ng/ml recombinant IL-6 (Gibco, Thermo Fisher Scientific, Waltham, Mass., USA). Murine multiple myeloma Vk*MYC cells were obtained from M.D. Leif Bergsagel (Mayo Clinic, Richester, Minn., USA) and cultured in RPMI-1640 supplemented with 2% human serum (B^+, The blood bank, St Olav's Hospital, Trondheim, Norway), 100 nM penicillin/streptomycin, L-Glutamine (2 mM) and recombinant IL-6 (1 ng/ml). HEK293T (ATCC CRL-3216) were cultured in DMEM with 10% FCS. THP-1 TRAM knockout (KO) and TLR4 KO cell lines, and matching lentivirally transduced control cell lines, were differentiated in the same way as wild type (WT) THP-1. TRAM KO THP-1 cell line is described in Yurchenko et al. (supra).
To evaluate the potential impact of the P7 peptide on proliferation of tumour cells of lymphoid origin, we performed a CellTiter-Glo Luminescent Cell Viability Assay to address proliferation of several multiple myeloma (MM) cell lines. For the assay, cells were incubated for 48 h in respective media containing either solvent (water), 10 μM control peptide (Pen) or the SLAMF1-derived peptide P7-A4-Pen for 48 h (FIG. 32) (with the exception of the INA-6 cells which were incubated with 12.5 μM control peptide or P7-A4-Pen). […] This effect could be mediated by P7-A4-Pen-induced inhibition of signalling pathways that are crucial for driving proliferation and/or survival of MM tumour cells.

Row | Substance | effect on proliferation of ANBL-6 cells
13 | Ac-IKVYASVTLTGRQIKIWFQNRRMKWKK-NH2 [Peptide P7-K2-Pen] | anti-proliferative effect
14 | Ac-ITVDASVTLTGRQIKIWFQNRRMKWKK-NH2 [Peptide P7-D4-Pen] | anti-proliferative effect
15 | ITVSASVTLTGRQIKIWFQNRRMKWKK (Ac-ITVSASVTLTGRQIKIWFQNRRMKWKK-NH2) [Peptide P7-S4-Pen] | anti-proliferative effect

same assay, conditions: 5, 10, 12.5, 15, 20 and 30 μM or 5, 10 and 20 μM, 48 h

Row | Substance | anti-proliferative activity over a concentration series
16 | Ac-IKVYASVTLTGRQIKIWFQNRRMKWKK-NH2 [Peptide P7-K2-Pen] | clear concentration-dependent effect
17 | Ac-ITVDASVTLTGRQIKIWFQNRRMKWKK-NH2 [Peptide P7-D4-Pen] | clear concentration-dependent effect
18 | IATYASVTLTGRQIKIWFQNRRMKWKK (Ac-IATYASVTLTGRQIKIWFQNRRMKWKK-NH2) [Peptide P7C3A-Pen, control peptide] | essentially no anti-proliferative effect

tested on: THP-1 cells; assay: LDH cytotoxicity assay in THP-1 cells; conditions: CPP screen, 15 μM, 30 min pre-treatment, LPS 100 ng/ml
Protocol: For every assay, separate wells were seeded for the required controls (Spontaneous LDH Release Controls and Maximum LDH Release Control) with the same amount of cells as used for peptide treatments. All supernatants were analysed in triplicate with the average value of technical replicates taken into calculations.
THP-1 cells were pre-treated with increasing concentrations of P7-Arg11 and control peptide Arg11 for 1 h (FIG. 3).

Row | Substance | reduction of LPS-mediated toxicity (LDH assay)
19 | Ac-ITVYASVTLTGRRRRRRR-NH2 [Peptide P7-Arg7, ITVYASVTLTGRRRRRRR] | some decrease
20 | Ac-ITVYASVTLTGRRRRRRRRR-NH2 [Peptide P7-Arg9] | some decrease
21 | Ac-RRRRRRRRRRRGITVYASVTLT-NH2 [Arg11-P7] | some decrease
